This test concerns the target T1, KRAS G12C 1-169, his-tagged protein, GDP-loaded (Homo sapiens, UniProt P01116, G12C).
T1 construct: KRAS G12C 1-169, his-tagged protein, GDP-loaded; His tag
In words: Biochemical assay: covalent modification of KRAS G12C, analysed by mass spectrometry (RapidFire/TOF or Q-Exactive). Note: time not given here. It is filed as binding. To be noted: Modification activity, modification percentage from MS peak intensities. A digest of the protocol: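 GDP-loaded His-tagged KRAS G12C 1-169 (2 μM or 0.5 μM in 20 mM Hepes, 150 mM NaCl, 1 mM MgCl2) reacted with compound at 32 μM or 8 μM final (2% DMSO) for a set time, then quenched with formic acid. Percent covalent modification from deconvoluted intact-protein MS peak intensities (RapidFire/TOF or LC-Q Exactive).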
On to `C=CC(=O)N1CC2(CCN(c3ncnc(-c4c(C)ccc5[nH]ncc45)c3OC)C2)C1` [Compound I-243, 1-(6-(5-methoxy-6-(5-methyl-1H-indazol-4-yl)pyrimidin-4-yl)-2,6-diazaspiro[3.4]octan-2-yl)prop-2-en-1-one], for which the Binding % result is “+ (+ indicates binding activity greater than 0% and up to 50%)”.

For the molecule `C=CC(=O)N1CC2(CCN(c3ncnc(Oc4ccccc4C(N)=O)c3C#N)C2)C1` [Compound I-244, 2-((6-(2-acryloyl-2,6-diazaspiro[3.4]octan-6-yl)-5-cyanopyrimidin-4-yl)oxy)benzamide], the Binding % entry was “+ (+ indicates binding activity greater than 0% and up to 50%)”.

With `C=CC(=O)N1CC2(CCN(c3ncnc(-c4c(C)ccc5[nH]ncc45)c3O)C2)C1` [Compound I-245, 1-(6-(5-hydroxy-6-(5-methyl-1H-indazol-4-yl)pyrimidin-4-yl)-2,6-diazaspiro[3.4]octan-2-yl)prop-2-en-1-one], the Binding % result is “+ (+ indicates binding activity greater than 0% and up to 50%)”.

Regarding `C=CC(=O)N1CC2(CCN(c3ncnc(N4CCCC4CO)c3C#N)C2)C1` (stereo not drawn) [Compound I-246, 4-(2-acryloyl-2,6-diazaspiro[3.4]octan-6-yl)-6-(2-(hydroxymethyl)pyrro-lidin-1-yl)pyrimidine-5-carbonitrile], the Binding % entry was “+ (+ indicates binding activity greater than 0% and up to 50%)”.

Take `C=CC(=O)N1CC2(CCN(c3ncnc(N4CCC[C@@H]4C(N)=O)c3C#N)C2)C1` [Compound I-247, (R)-1-(6-(2-acryloyl-2,6-diazaspiro[3.4]octan-6-yl)-5-cyanopyrimidin-4-yl)pyrrolidine-2-carboxamide]: the Binding % result was “+ (+ indicates binding activity greater than 0% and up to 50%)”.

Turning to `C=CC(=O)N1CC2(CCN(c3ncnc(N4CCC[C@H]4C(N)=O)c3C#N)C2)C1` [Compound I-248, (S)-1-(6-(2-acryloyl-2,6-diazaspiro[3.4]octan-6-yl)-5-cyanopyrimidin-4-yl)pyrrolidine-2-carboxamide], the Binding % result was “+ (+ indicates binding activity greater than 0% and up to 50%)”.

For the molecule `C=CC(=O)N1CC2(CCN(c3ncnc(-c4c(C)ccc5[nH]ncc45)c3C3CC3)C2)C1` [Compound I-249, 1-(6-(5-cyclopropyl-6-(5-methyl-1H-indazol-4-yl)pyrimidin-4-yl)-2,6-diazaspiro[3.4]octan-2-yl)prop-2-en-1-one], the Binding % result is “+ (+ indicates binding activity greater than 0% and up to 50%)”.

Consider `C=CC(=O)N1CC2(CCN(c3ncnc(-c4c(C)ccc5[nH]cnc45)c3C#N)C2)C1` [Compound I-250, 4-(2-acryloyl-2,6-diazaspiro[3.4]octan-6-yl)-6-(5-methyl-1H-benzo[d]imidazol-4-yl)pyrimidine-5-carbonitrile], for which the Binding % result was “+ (+ indicates binding activity greater than 0% and up to 50%)”.

On to `C=CC(=O)N1CC2(CCN(c3ncnc(-c4c(C)ccc5[nH]ncc45)c3CO)C2)C1` [Compound I-251, 1-(6-(5-(hydroxymethyl)-6-(5-methyl-1H-indazol-4-yl)pyrimidin-4-yl)-2,6-diazaspiro[3.4]octan-2-yl)prop-2-en-1-one], for which the Binding % entry was “+ (+ indicates binding activity greater than 0% and up to 50%)”.

Turning to `C=CC(=O)N1CC2(CCN(c3ccnc(-c4c(C)ccc5[nH]ncc45)c3C#N)C2)C1` [Compound I-252, 4-(2-acryloyl-2,6-diazaspiro[3.4]octan-6-yl)-2-(5-methyl-1H-indazol-4-yl)nicotinonitrile], the Binding % result was “+ (+ indicates binding activity greater than 0% and up to 50%)”.

With `C=CC(=O)N1CC2(CCN(c3ncnc(-c4c(C)ccc5[nH]ncc45)c3C(N)=O)C2)C1` [Compound I-253, 4-(2-acryloyl-2,6-diazaspiro[3.4]octan-6-yl)-6-(5-methyl-1H-indazol-4-yl)pyrimidine-5-carboxamide], the Binding % result is “+ (+ indicates binding activity greater than 0% and up to 50%)”.

`C=CC(=O)N1CC2(CCN(c3ncnc(-c4c(C)ccc5[nH]ncc45)c3C(=O)N(C)C)C2)C1` [Compound I-254, 4-(2-acryloyl-2,6-diazaspiro[3.4]octan-6-yl)-N,N-dimethyl-6-(5-methyl-1H-indazol-4-yl)pyrimidine-5-carboxamide]: the Binding % result is “+ (+ indicates binding activity greater than 0% and up to 50%)”.

As to `C=CC(=O)N1CC2(CCN(c3ncnc(Oc4cccc(C(N)=O)c4)c3C#N)C2)C1` [Compound I-255, 3-((6-(2-acryloyl-2,6-diazaspiro[3.4]octan-6-yl)-5-cyanopyrimidin-4-yl)oxy)benzamide], the Binding % entry is “+ (+ indicates binding activity greater than 0% and up to 50%)”.

As to `C=CC(=O)N1CC2(CCN(c3cncc(-c4c(C)ccc5[nH]ncc45)c3C#N)C2)C1` [Compound I-256, 3-(2-acryloyl-2,6-diazaspiro[3.4]octan-6-yl)-5-(5-methyl-1H-indazol-4-yl)isonicotinonitrile], the Binding % result was “+++ (+++ indicates binding activity greater than 85%)”.

As for `C=CC(=O)N1CC2(CCN(c3ncnc(-c4c(C)ccc5[nH]ncc45)c3C)C2)C1` [Compound I-257, 1-(6-(5-methyl-6-(5-methyl-1H-indazol-4-yl)pyrimidin-4-yl)-2,6-diazaspiro[3.4]octan-2-yl)prop-2-en-1-one], the Binding % result is “+ (+ indicates binding activity greater than 0% and up to 50%)”.

For the molecule `C=CC(=O)N1CC2(CCN(c3ncnc(-c4c(C)ccc5[nH]ncc45)c3CN(C)C)C2)C1` [Compound I-258, 1-(6-(5-((dimethylamino)meth-yl)-6-(5-methyl-1H-indazol-4-yl)pyrimidin-4-yl)-2,6-diazaspiro[3.4]octan-2-yl)prop-2-en-1-one], the Binding % result is “+ (+ indicates binding activity greater than 0% and up to 50%)”.

`C=CC(=O)N1CC2(CCN(c3ncnc(-c4c(C)ccc5[nH]ncc45)c3CC(F)(F)F)C2)C1` [Compound I-259, 1-(6-(6-(5-methyl-1H-indazol-4-yl)-5-(2,2,2-trifluoroethyl)pyrimi-din-4-yl)-2,6-diazaspiro[3.4]octan-2-yl)prop-2-en-1-one]: the Binding % result is “+ (+ indicates binding activity greater than 0% and up to 50%)”.

Turning to `C=CC(=O)N1CC2(CCN(c3ncnc(-c4c(C)ccc5[nH]ncc45)c3C(F)(F)F)C2)C1` [Compound I-260, 1-(6-(6-(5-methyl-1H-indazol-4-yl)-5-(trifluoromethyl)pyri-midin-4-yl)-2,6-diazaspiro[3.4]octan-2-yl)prop-2-en-1-one], the Binding % result is “+ (+ indicates binding activity greater than 0% and up to 50%)”.

Consider `C=CC(=O)N1CC2(CCN(c3ncnc(-c4c(C)ccc5[nH]ncc45)c3N3CCCC3)C2)C1` [Compound I-261, 1-(6-(6-(5-methyl-1H-indazol-4-yl)-5-(pyrrolidin-1-yl)pyrimidin-4-yl)-2,6-diazaspiro[3.4]octan-2-yl)prop-2-en-1-one], for which the Binding % entry was “+ (+ indicates binding activity greater than 0% and up to 50%)”.

Consider `C=CC(=O)N1CC2(CCN(c3ncnc(-c4c(C)ccc5[nH]ncc45)c3CC)C2)C1` [Compound I-262, 1-(6-(5-ethyl-6-(5-methyl-1H-indazol-4-yl)pyrimidin-4-yl)-2,6-diazaspiro[3.4]octan-2-yl)prop-2-en-1-one], for which the Binding % result was “+ (+ indicates binding activity greater than 0% and up to 50%)”.

`C=CC(=O)N1CC2(CCN(c3cncc(-c4c(C)ccc5[nH]ncc45)c3C#N)CC2)C1` [Compound I-263, 3-(2-acryloyl-2,7-diazaspiro[3.5]nonan-7-yl)-5-(5-methyl-1H-indazol-4-yl)isonicotinonitrile]: the Binding % result is “+ (+ indicates binding activity greater than 0% and up to 50%)”.

For `C=CC(=O)N1CC2(CCN(c3cncc(-c4c(C)ccc5cnn(C)c45)c3C#N)C2)C1` [Compound I-264, 3-(2-acryloyl-2,6-diazaspiro[3.4]octan-6-yl)-5-(1,6-dimethyl-1H-indazol-7-yl)isonicotinonitrile], the Binding % result was “++ (++ indicates binding activity from 50 to 85%)”.

On to `C=CC(=O)N1CC2(CCN(c3cncc(-c4c(C)ccc5cnn(C)c45)c3C#N)CC2)C1` [Compound I-265, 3-(2-acryloyl-2,7-diazaspiro[3.5]nonan-7-yl)-5-(1,6-dimethyl-1H-indazol-7-yl)isonicotinonitrile], for which the Binding % result was “+ (+ indicates binding activity greater than 0% and up to 50%)”.

Consider `C/C=C/C(=O)N1CC2(CCN(c3ncnc(-c4c(C)ccc5[nH]ncc45)c3C#N)C2)C1` [Compound I-266, (E)-4-(2-(but-2-enoyl)-2,6-diazaspiro[3.4]octan-6-yl)-6-(5-methyl-1 1H-indazol-4-yl)pyrimidine-5-carbonitrile], for which the Binding % entry is “+ (+ indicates binding activity greater than 0% and up to 50%)”.

Consider `C=CC(=O)N1CC2(CCN(c3nccc(-c4c(C)ccc5[nH]ncc45)c3C#N)C2)C1` [Compound I-267, 2-(2-acryloyl-2,6-diazaspiro[3.4]octan-6-yl)-4-(5-methyl-1H-indazol-4-yl)nicotinonitrile], for which the Binding % result is “+ (+ indicates binding activity greater than 0% and up to 50%)”.

`C#Cc1c(-c2c(C)ccc3[nH]ncc23)ncnc1N1CCC2(CN(C(=O)C=C)C2)C1` [Compound I-268, 1-(6-(5-ethynyl-6-(5-methyl-1H-indazol-4-yl)pyrimidin-4-yl)-2,6-diazaspiro[3.4]octan-2-yl)prop-2-en-1-one]: the Binding % result is “+ (+ indicates binding activity greater than 0% and up to 50%)”.

For `C=CC(=O)N1CC2(CCN(c3cncc(-c4c(O)cccc4F)c3C#N)C2)C1` [Compound I-269, 3-(2-acryloyl-2,6-diazaspiro[3.4]octan-6-yl)-5-(2-fluoro-6-hydroxyphenyl)isoni-cotinonitrile], the Binding % result is “+ (+ indicates binding activity greater than 0% and up to 50%)”.

The record behind these values is US12134620B2 (ARAXES PHARMA LLC, priority 2018, dated 2024).
